# Tests used:
# [1] = system: Cystic fibrosis transmembrane conductance regulator (Homo sapiens), P13569 [F508del]; assay: Potentiation of CFTR F508del mutant (unknown origin) expressed in FRT cells assessed as chloride transport by measuring membrane potential in presence of forskolin relative to PG-01; format: cell-based; conditions: filed as activator
# [2] = Mean residence time in cynomolgus monkey at 10 mg/kg, po or 0.1 mg/kg, iv after 48 hrs by LC-MS/MS analysis; format: ADME, organism-based, Macaca fascicularis; conditions: in vivo
# [3] = Oral bioavailability in cynomolgus monkey at 10 mg/kg after 48 hrs by LC-MS/MS analysis; format: ADME, organism-based, Macaca fascicularis; conditions: in vivo
# [4] = Toxicity in Wistar Han rat assessed as NOAEL; conditions: in vivo, dose 10 mg/kg
# [5] = target: T1, Cystic fibrosis transmembrane conductance regulator (Homo sapiens, UniProt P13569, F508DEL); assay: Potentiation of CFTR F508del mutant (unknown origin) expressed in CHO cells assessed as chloride transport by measuring membrane potential incubated for 5 to 30 mins in presence of forskolin by Quattro assay; format: cell-based
# T1 sequence (P13569 as listed by the source): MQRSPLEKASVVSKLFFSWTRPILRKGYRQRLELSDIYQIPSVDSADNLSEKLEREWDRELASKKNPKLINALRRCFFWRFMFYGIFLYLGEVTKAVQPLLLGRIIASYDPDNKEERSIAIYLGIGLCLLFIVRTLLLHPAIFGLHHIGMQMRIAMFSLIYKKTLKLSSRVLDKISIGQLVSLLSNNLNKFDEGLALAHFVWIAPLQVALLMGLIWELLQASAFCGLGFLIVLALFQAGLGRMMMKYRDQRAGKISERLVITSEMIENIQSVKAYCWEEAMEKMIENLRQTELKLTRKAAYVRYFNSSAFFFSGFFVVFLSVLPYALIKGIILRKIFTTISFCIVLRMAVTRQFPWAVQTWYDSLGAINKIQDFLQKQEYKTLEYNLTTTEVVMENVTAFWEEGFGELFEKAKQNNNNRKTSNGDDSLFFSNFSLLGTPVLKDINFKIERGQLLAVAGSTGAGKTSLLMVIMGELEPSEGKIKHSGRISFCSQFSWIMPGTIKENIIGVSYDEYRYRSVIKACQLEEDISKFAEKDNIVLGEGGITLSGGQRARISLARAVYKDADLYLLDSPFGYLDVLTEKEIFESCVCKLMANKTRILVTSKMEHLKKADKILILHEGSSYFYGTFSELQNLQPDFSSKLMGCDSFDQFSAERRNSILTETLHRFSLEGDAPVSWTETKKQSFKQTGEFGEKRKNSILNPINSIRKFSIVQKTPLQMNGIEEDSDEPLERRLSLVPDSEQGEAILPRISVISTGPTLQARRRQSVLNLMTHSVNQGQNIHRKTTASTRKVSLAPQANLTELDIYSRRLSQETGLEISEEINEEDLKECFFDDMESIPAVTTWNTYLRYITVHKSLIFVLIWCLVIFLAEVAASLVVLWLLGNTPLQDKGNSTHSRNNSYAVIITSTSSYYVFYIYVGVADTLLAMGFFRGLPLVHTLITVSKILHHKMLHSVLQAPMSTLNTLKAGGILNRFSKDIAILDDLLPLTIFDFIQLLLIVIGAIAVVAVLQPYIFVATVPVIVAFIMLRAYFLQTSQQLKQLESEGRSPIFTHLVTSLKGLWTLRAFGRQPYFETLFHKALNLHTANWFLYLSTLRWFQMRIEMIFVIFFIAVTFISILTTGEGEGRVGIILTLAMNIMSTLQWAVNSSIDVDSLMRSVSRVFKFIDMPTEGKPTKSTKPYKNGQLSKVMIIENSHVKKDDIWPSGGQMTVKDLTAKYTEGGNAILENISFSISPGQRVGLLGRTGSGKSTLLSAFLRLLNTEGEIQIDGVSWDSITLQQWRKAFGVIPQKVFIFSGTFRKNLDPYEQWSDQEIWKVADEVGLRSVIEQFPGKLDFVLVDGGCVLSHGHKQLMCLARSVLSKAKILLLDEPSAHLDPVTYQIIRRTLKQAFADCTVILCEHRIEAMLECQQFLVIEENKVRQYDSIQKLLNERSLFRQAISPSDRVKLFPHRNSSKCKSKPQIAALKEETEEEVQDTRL
# [6] = Clearance in Beagle dog plasma at 3 mg/kg, po or 0.46 mg/kg, iv after 48 hrs by LC-MS/MS analysis; format: ADME, organism-based, Canis lupus familiaris
# [7] = Volume of distribution at steady state in cynomolgus monkey at 10 mg/kg, po or 0.1 mg/kg, iv after 48 hrs by LC-MS/MS analysis; format: ADME, organism-based, Macaca fascicularis; conditions: in vivo, read-out: Vdss
# [8] = Unbound Cmax in cynomolgus monkey plasma measured at 10 mg/kg, po or 0.1 mg/kg, iv after 48 hrs by LC-MS/MS analysis; format: ADME, organism-based, Macaca fascicularis; conditions: in vivo
# [9] = target: T1, Cystic fibrosis transmembrane conductance regulator; assay: Potentiation of CFTR F508 deletion mutant (unknown origin) expressed in HBE cells assessed as change in short circuit current in presence of forskolin and amiloride; format: cell-based
# [10] = Cmax in Beagle dog at 3 mg/kg, po or 0.46 mg/kg, iv after 48 hrs by LC-MS/MS analysis; format: ADME, organism-based, Canis lupus familiaris; set-up: time 48 hrs, dose 3 mg/kg; conditions: in vivo
# [11] = Clearance in cynomolgus monkey plasma at 10 mg/kg, po or 0.1 mg/kg, iv after 48 hrs by LC-MS/MS analysis; format: ADME, organism-based, Macaca fascicularis
# [12] = Toxicity in Wistar Han rat assessed as tolerability at 100 mg/kg, po after 2 days; format: organism-based; conditions: in vivo, 48 h, time 2 day
# [13] = target: T2, Cystic fibrosis transmembrane conductance regulator (Homo sapiens, UniProt P13569); assay: Potentiation of wild-type CFTR (unknown origin) expressed in FRT cells assessed as chloride transport by measuring membrane potential in presence of forskolin; format: cell-based
# Target sequence in this assay (P13569 whole entry): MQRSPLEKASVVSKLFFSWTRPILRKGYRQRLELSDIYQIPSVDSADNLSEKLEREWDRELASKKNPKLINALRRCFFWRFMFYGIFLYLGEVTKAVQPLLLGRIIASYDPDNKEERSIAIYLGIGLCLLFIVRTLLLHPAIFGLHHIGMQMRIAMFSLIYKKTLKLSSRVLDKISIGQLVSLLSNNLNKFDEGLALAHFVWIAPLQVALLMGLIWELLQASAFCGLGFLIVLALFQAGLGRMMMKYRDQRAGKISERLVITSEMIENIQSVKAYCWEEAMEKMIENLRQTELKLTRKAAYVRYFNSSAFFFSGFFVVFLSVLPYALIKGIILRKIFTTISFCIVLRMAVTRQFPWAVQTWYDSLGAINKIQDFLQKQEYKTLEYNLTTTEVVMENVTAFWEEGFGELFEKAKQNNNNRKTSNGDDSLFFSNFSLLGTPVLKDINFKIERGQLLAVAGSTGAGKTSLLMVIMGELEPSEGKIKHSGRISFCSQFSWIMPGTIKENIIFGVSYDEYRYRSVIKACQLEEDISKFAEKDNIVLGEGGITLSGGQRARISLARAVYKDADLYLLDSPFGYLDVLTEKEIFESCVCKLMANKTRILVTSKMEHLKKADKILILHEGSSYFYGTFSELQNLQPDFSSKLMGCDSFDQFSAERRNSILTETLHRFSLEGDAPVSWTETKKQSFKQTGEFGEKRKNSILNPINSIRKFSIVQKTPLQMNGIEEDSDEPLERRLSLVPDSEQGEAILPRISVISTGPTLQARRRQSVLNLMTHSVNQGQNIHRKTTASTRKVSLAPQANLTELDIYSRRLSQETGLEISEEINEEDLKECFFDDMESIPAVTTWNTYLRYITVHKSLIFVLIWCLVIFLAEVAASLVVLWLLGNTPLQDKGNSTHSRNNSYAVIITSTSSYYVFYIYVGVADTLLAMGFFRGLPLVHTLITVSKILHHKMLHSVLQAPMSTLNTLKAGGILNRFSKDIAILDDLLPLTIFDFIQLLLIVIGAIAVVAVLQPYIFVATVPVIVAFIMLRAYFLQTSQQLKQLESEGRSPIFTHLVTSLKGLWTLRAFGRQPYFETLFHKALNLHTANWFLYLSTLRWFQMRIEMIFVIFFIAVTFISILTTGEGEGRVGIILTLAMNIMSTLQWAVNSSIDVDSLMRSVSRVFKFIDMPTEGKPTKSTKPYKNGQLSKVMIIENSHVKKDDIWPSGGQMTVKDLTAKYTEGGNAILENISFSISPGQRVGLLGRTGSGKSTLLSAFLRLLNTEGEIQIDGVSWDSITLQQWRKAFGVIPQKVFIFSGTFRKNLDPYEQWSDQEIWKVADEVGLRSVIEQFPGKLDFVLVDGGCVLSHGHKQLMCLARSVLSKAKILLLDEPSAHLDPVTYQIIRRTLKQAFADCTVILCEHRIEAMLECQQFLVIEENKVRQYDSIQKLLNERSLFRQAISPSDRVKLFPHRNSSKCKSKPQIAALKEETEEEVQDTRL
# [14] = Clearance in Sprague-Dawley rat at 3 mg/kg, po and 1 mg/kg, iv measured upto 48 hrs by LC MS/MS analysis; format: ADME, organism-based; conditions: in vivo
# [15] = target: T1, Cystic fibrosis transmembrane conductance regulator; assay: Potentiation of CFTR F508del mutant (unknown origin) expressed in FRT cells assessed as chloride transport by measuring membrane potential in presence of forskolin; format: cell-based
# [16] = Clearance in cynomolgus monkey blood at 10 mg/kg, po or 0.1 mg/kg, iv after 48 hrs by LC-MS/MS analysis; format: ADME, organism-based, Macaca fascicularis
# [17] = Clearance in Beagle dog blood at 3 mg/kg, po or 0.46 mg/kg, iv after 48 hrs by LC-MS/MS analysis; format: ADME, organism-based, Canis lupus familiaris
# [18] = target: Cystic fibrosis transmembrane conductance regulator (Homo sapiens, UniProt P13569, G551D); assay: Potentiation of CFTR G551D mutant (unknown origin) expressed in FRT cells assessed as chloride transport by measuring membrane potential in presence of forskolin; format: cell-based
# Chain of Cystic fibrosis transmembrane conductance regulator (Homo sapiens, UniProt P13569, G551D) (P13569 whole entry G551D): as the sequence (P13569 whole entry) above, with G551D counted along it
# [19] = system: Cystic fibrosis transmembrane conductance regulator (Homo sapiens), P13569 [G551D]; assay: Potentiation of CFTR G551D mutant (unknown origin) expressed in FRT cells assessed as chloride transport by measuring membrane potential in presence of forskolin relative to PG-01; format: cell-based; conditions: filed as activator
# Chain of Cystic fibrosis transmembrane conductance regulator (Homo sapiens), P13569 [G551D] (P13569 whole entry G551D): as the sequence (P13569 whole entry) above, with G551D counted along it
# [20] = Unbound Cmax in Sprague-Dawley rat at 3 mg/kg, po and 1 mg/kg, iv measured upto 48 hrs by LC-MS/MS analysis; format: ADME, organism-based; conditions: in vivo
# [21] = Volume of distribution in Sprague-Dawley rat at 3 mg/kg, po and 1 mg/kg, iv measured upto 48 hrs by LC-MS/MS analysis; format: ADME, organism-based; conditions: in vivo
# [22] = Plasma Protein binding in Sprague-Dawley rat at 5 uM incubated for 4 hrs by rapid equilibrium dialysis; format: ADME, cell-free; conditions: read-out: PPB (converted)
# [23] = Cmax in cynomolgus monkey at 10 mg/kg, po or 0.1 mg/kg, iv after 48 hrs by LC-MS/MS analysis; format: ADME, organism-based, Macaca fascicularis; set-up: time 48 hrs, dose 10 mg/kg; conditions: in vivo
# [24] = Oral bioavailability in Sprague-Dawley rat at 3 mg/kg measured upto 48 hrs by LC-MS/MS analysis; format: ADME, organism-based; conditions: in vivo
# [25] = Mean residence time in Beagle dog at 3 mg/kg, po or 0.46 mg/kg, iv after 48 hrs by LC-MS/MS analysis; format: ADME, organism-based, Canis lupus familiaris; conditions: in vivo
# [26] = Unbound Cmax in Beagle dog at 3 mg/kg, po or 0.46 mg/kg, iv after 48 hrs by LC-MS/MS analysis; format: ADME, organism-based, Canis lupus familiaris; conditions: in vivo
# [27] = Toxicity in human assessed as tolerability upto […], po bid; format: organism-based; conditions: in vivo
# [28] = Solubility of the compound at pH 6.8; format: physicochemical; conditions: buffer
# [29] = system: Cystic fibrosis transmembrane conductance regulator (Homo sapiens), P13569 [F508del]; assay: Potentiation of CFTR F508del mutant (unknown origin) expressed in CHO cells assessed as chloride transport by measuring membrane potential incubated for 5 to 30 mins in presence of forskolin by Quattro assay relative to PG-01; format: cell-based; set-up: concentration or dose not given beside the values; conditions: filed as activator, time 5-30 min
# [30] = target: T2, Cystic fibrosis transmembrane conductance regulator; assay: Potentiation of wild type CFTR (unknown origin) expressed in HBE cells assessed as change in short circuit current in presence of forskolin and amiloride; format: cell-based
# Target sequence in this assay (P13569 whole entry): as the sequence (P13569 whole entry) above
# [31] = Oral bioavailability in Beagle dog at 3 mg/kg after 48 hrs by LC-MS/MS analysis; format: ADME, organism-based, Canis lupus familiaris; conditions: in vivo
# [32] = Volume of distribution at steady state in Beagle dog at 3 mg/kg, po or 0.46 mg/kg, iv after 48 hrs by LC-MS/MS analysis; format: ADME, organism-based, Canis lupus familiaris; conditions: in vivo, read-out: Vdss
# [33] = target: T2, Cystic fibrosis transmembrane conductance regulator; assay: Potentiation of wild type CFTR (unknown origin) expressed in HBE cells assessed as change in short circuit current in presence of forskolin and amiloride relative to PG-01; format: cell-based; conditions: filed as activator
# Target sequence in this assay (P13569 whole entry, looked up): as the sequence (P13569 whole entry) above
# [34] = system: Cystic fibrosis transmembrane conductance regulator (Homo sapiens), P13569 [F508del]; assay: Potentiation of CFTR F508 deletion mutant (unknown origin) expressed in HBE cells assessed as change in short circuit current in presence of forskolin and amiloride relative to PG-01; format: cell-based; conditions: filed as activator
# [35] = target: T2, Cystic fibrosis transmembrane conductance regulator; assay: Potentiation of wild-type CFTR (unknown origin) expressed in FRT cells assessed as chloride transport by measuring membrane potential in presence of forskolin relative to PG-01; format: cell-based; conditions: filed as activator
# Target sequence in this assay (P13569 whole entry, looked up): as the sequence (P13569 whole entry) above
# [36] = Cmax in Sprague-Dawley rat at 3 mg/kg, po and 1 mg/kg, iv measured upto 48 hrs by LC-MS/MS analysis; format: ADME, organism-based; set-up: dose 3 mg/kg, time <=48; conditions: in vivo
# [37] = Mean residence time in Sprague-Dawley rat at 3 mg/kg, po and 1 mg/kg, iv measured upto 48 hrs by LC-MS/MS analysis; format: ADME, organism-based; conditions: in vivo
# [38] = Cmax in Sprague-Dawley rat at 3 mg/kg, po and 0.5 mg/kg, iv measured upto 48 hrs by LC-MS/MS analysis; format: ADME, organism-based; set-up: dose 3 mg/kg, time <=48; conditions: in vivo
# [39] = Volume of distribution at steady state in Sprague-Dawley rat at 3 mg/kg, po and 0.5 mg/kg, iv measured upto 48 hrs by LC-MS/MS analysis; format: ADME, organism-based; conditions: in vivo, read-out: Vdss
# [40] = Mean residence time in Sprague-Dawley rat at 3 mg/kg, po and 0.5 mg/kg, iv measured upto 48 hrs by LC-MS/MS analysis; format: ADME, organism-based; conditions: in vivo
# [41] = Clearance in Sprague-Dawley rat at 3 mg/kg, po and 0.5 mg/kg, iv measured upto 48 hrs by LC-MS/MS analysis; format: ADME, organism-based; conditions: in vivo
# Chain of Cystic fibrosis transmembrane conductance regulator (Homo sapiens), P13569 [F508del] (P13569 as listed by the source): as the sequence (P13569 as listed by the source) above
smiles,measurement,setting,value
COc1nc(C(=O)NC[C@](C)(O)C(F)(F)F)c(N)cc1C(F)(F)F [ICENTICAFTOR],Activity,[1],92%
same,MRT,[2],3.3 h
same,bioavailability,[3],26%
same,NOAEL,[4],10 mg/kg
same,EC50,[5],47 nM
same,clearance,[6],29 mL/min/kg
same,Vd,[7],3.5 L/kg
same,fCmax,[8],276 nM
same,EC50,[9],39 nM
same,Cmax,[10],1950 nM
same,clearance,[11],18 mL/min/kg
same,Activity,[12],Non-Toxic
same,EC50,[13],113 nM
same,clearance,[14],5 mL/min/kg
same,EC50,[15],79 nM
same,clearance,[16],20.2 mL/min/kg
same,clearance,[17],41 mL/min/kg
same,EC50,[18],497 nM
same,Activity,[19],40%
same,fCmax,[20],132 nM
same,Vd,[21],3 L/kg
same,"fraction unbound at 4 h, 5 µM",[22],0.097
same,Cmax,[23],2300 nM
same,bioavailability,[24],90%
same,MRT,[25],4.4 h
same,fCmax,[26],102 nM
same,Activity,[27],Non-Toxic
same,solubility,[28],237 µg/mL
same,Activity,[29],96%
same,EC50,[30],72 nM
same,bioavailability,[31],146%
same,Vd,[32],7.5 L/kg
same,Activity,[33],87%
same,Activity,[34],84%
same,Activity,[35],79%
same,Cmax,[36],1360 nM
same,MRT,[37],10.2 h
Nc1cc(C(F)(F)F)c(Br)nc1C(=O)NC[C@@H](O)C(F)(F)F,Cmax,[38],271 nM
same,EC50,[5],9 nM
same,Vd,[39],3.2 L/kg
same,MRT,[40],1 h
same,clearance,[41],53 mL/min/kg
same,bioavailability,[24],32%
same,solubility,[28],177 µg/mL
same,Activity,[29],100%

# Reference: ChEMBL document CHEMBL5036320, “Discovery of Icenticaftor (QBW251), a Cystic Fibrosis Transmembrane Conductance Regulator Potentiator with Clinical Efficacy in Cystic Fibrosis and Chronic Obstructive Pulmonary Disease” (J Med Chem, 2021)
